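Step 1: Grow cells in 96-well plates. Step 2: Expose to compound for 48 hours at 5 concentrations. Step 3: Interpolate endpoints linearly; if unreached, use highest concentration. Abbreviation: GI50, concentration required for 50% inhibition of growth.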 Activity calls are given as the source filed them. Rule as the data show it: active = GI50 up to about 1.1 µM and inactive = higher.
Columns and labels:
Test in all cases: NCI tumour cell line growth inhibition, 48 h
[1] = tested on: SK-MEL-5
[2] = tested on: SK-MEL-2
[3] = tested on: DU-145
[4] = tested on: UACC-62
[5] = tested on: HCT-116
[6] = tested on: COLO 205
[7] = tested on: RXF 393
[8] = tested on: OVCAR-4
[9] = tested on: K562
[10] = tested on: HT-29
[11] = tested on: NCI-H226
[12] = tested on: MDA-MB-231
[13] = tested on: U-251
[14] = tested on: SK-MEL-28
[15] = tested on: T47D
[16] = tested on: A498
[17] = tested on: MDA-MB-435
[18] = tested on: TK-10
[19] = tested on: Hs-578T
[20] = tested on: NCI-H460

Row | Compound | GI50 [1] | GI50 [2] | GI50 [3] | GI50 [4] | GI50 [5] | GI50 [6] | GI50 [7] | GI50 [8] | GI50 [9] | GI50 [10] | GI50 [11] | GI50 [12] | GI50 [13] | GI50 [14] | GI50 [15] | GI50 [16] | GI50 [17] | GI50 [18] | GI50 [19] | GI50 [20]
1 | NCCNC(=S)S | > 100 µM (inactive) | > 100 µM (inactive) | > 100 µM (inactive) | > 100 µM (inactive) | > 100 µM (inactive) | > 100 µM (inactive) | > 100 µM (inactive) | > 100 µM (inactive) | 36.6 µM (inactive) | 85.9 µM (inactive) | > 100 µM (inactive) | > 100 µM (inactive) | > 100 µM (inactive) | > 100 µM (inactive) | > 100 µM (inactive) | > 100 µM (inactive) | > 100 µM (inactive) | > 100 µM (inactive) | 7.31 µM (inactive) | 
2 | C=C1CC(Cn2ccc(=O)[nH]c2=O)(c2ccc(Cl)cc2)OC1=O (stereo not drawn) | 3.05 µM (inactive) | 5.65 µM (inactive) | 9.53 µM (inactive) | 5.15 µM (inactive) | 2.3 µM (inactive) | 1.73 µM (inactive) |  | 1.88 µM (inactive) | 0.631 µM (active) | 5.41 µM (inactive) | 22.9 µM (inactive) | 14.6 µM (inactive) | 17.7 µM (inactive) | 4.3 µM (inactive) | 3.03 µM (inactive) | 16.4 µM (inactive) | 8.15 µM (inactive) | 1.57 µM (inactive) | 10.5 µM (inactive) | 9.53 µM (inactive)
3 | Cc1nn(C(=O)Cc2ccccc2)c2c1C(c1ccc(/C=C/c3ccccc3)cc1)SC(=N)N2 (stereo not drawn) | > 100 µM (inactive) |  | > 100 µM (inactive) | > 100 µM (inactive) | > 100 µM (inactive) | > 100 µM (inactive) |  |  | > 100 µM (inactive) | > 100 µM (inactive) | > 100 µM (inactive) | > 100 µM (inactive) |  | > 100 µM (inactive) | > 100 µM (inactive) | > 100 µM (inactive) | > 100 µM (inactive) | > 100 µM (inactive) | > 100 µM (inactive) | > 100 µM (inactive)
4 | CCC1(COC(NC(=O)c2ccccc2)(C(F)(F)F)C(F)(F)F)COC1 | > 100 µM (inactive) | > 100 µM (inactive) |  |  | > 100 µM (inactive) | > 100 µM (inactive) | > 100 µM (inactive) |  | > 100 µM (inactive) | > 100 µM (inactive) |  |  | > 100 µM (inactive) | > 100 µM (inactive) | > 100 µM (inactive) | > 100 µM (inactive) | > 100 µM (inactive) | > 100 µM (inactive) | > 100 µM (inactive) | 
5 | Cc1cccc(C[C@@]2(SCc3ccccc3)C(C)(C)[C@@H]3CC[C@@]2(C)C3)n1 | 15.9 µM (inactive) | 13.9 µM (inactive) | 16.9 µM (inactive) | 13.7 µM (inactive) | 14.7 µM (inactive) | 15.6 µM (inactive) | 16.3 µM (inactive) |  | 13.1 µM (inactive) | 15 µM (inactive) |  | 14 µM (inactive) | 16.6 µM (inactive) | 19.5 µM (inactive) | 7.26 µM (inactive) | 15.3 µM (inactive) | 24 µM (inactive) | 17.6 µM (inactive) | 19.7 µM (inactive) | 15.6 µM (inactive)
6 | Cc1ccc(/C=N/NC2=NCCN2)s1 | > 100 µM (inactive) | > 100 µM (inactive) | > 100 µM (inactive) | > 100 µM (inactive) | > 100 µM (inactive) | > 100 µM (inactive) | > 100 µM (inactive) | > 100 µM (inactive) | 41 µM (inactive) | > 100 µM (inactive) | 79.4 µM (inactive) | > 100 µM (inactive) | > 100 µM (inactive) | > 100 µM (inactive) | > 100 µM (inactive) |  | > 100 µM (inactive) | > 100 µM (inactive) | > 100 µM (inactive) | 
7 | O=C(C(Cl)=C(Nc1ccccc1)Nc1ccccc1)C(Cl)Cl | 14.9 µM (inactive) |  | 51.2 µM (inactive) | 18.6 µM (inactive) | 17.3 µM (inactive) | 30.6 µM (inactive) | 14.6 µM (inactive) | 36.1 µM (inactive) | 25.3 µM (inactive) | 21.2 µM (inactive) | 39.1 µM (inactive) | 40.5 µM (inactive) |  | 33.2 µM (inactive) | 12.4 µM (inactive) | 24.8 µM (inactive) | 10.6 µM (inactive) | 40.3 µM (inactive) | > 100 µM (inactive) | 25.1 µM (inactive)
8 | CC(C)(O)CO/N=C1\C(=C2\C(=O)Nc3ccccc32)Nc2ccccc21 | 0.423 µM (active) | 0.232 µM (active) | 0.476 µM (active) | 0.728 µM (active) | 6.28 µM (inactive) | 0.615 µM (active) | 0.279 µM (active) | 2.94 µM (inactive) | 5.86 µM (inactive) | 1.75 µM (inactive) |  | 2.01 µM (inactive) | 2.38 µM (inactive) | 2.38 µM (inactive) | 0.631 µM (active) | 0.187 µM (active) | 0.794 µM (active) | 0.601 µM (active) | 0.867 µM (active) | 0.395 µM (active)
9 | CCCCCN1C(=O)C(Cc2ccccc2)N=C(c2ccc(O)cc2)c2cc(Cl)ccc21 (stereo not drawn) |  | 14.6 µM (inactive) | 15.8 µM (inactive) | 10.3 µM (inactive) | 7.94 µM (inactive) | 2.96 µM (inactive) |  | 7.73 µM (inactive) | 3.23 µM (inactive) | 9.06 µM (inactive) | 7.43 µM (inactive) | 17.3 µM (inactive) | 9.35 µM (inactive) | 15.1 µM (inactive) | 3.72 µM (inactive) | > 33.7 µM (inactive) | 9.53 µM (inactive) | 12.9 µM (inactive) | 7.53 µM (inactive) | 7.73 µM (inactive)
10 | CCOC(=O)c1nc2ccccc2nc1Nc1ccc(OC)c(OC)c1 | 63.7 µM (inactive) | > 100 µM (inactive) | > 100 µM (inactive) | > 100 µM (inactive) | > 100 µM (inactive) | > 100 µM (inactive) |  | > 100 µM (inactive) | > 100 µM (inactive) | > 100 µM (inactive) |  | > 100 µM (inactive) | 75.7 µM (inactive) | > 100 µM (inactive) | > 100 µM (inactive) |  | > 100 µM (inactive) | > 10 µM (inactive) | 37.7 µM (inactive) | > 100 µM (inactive)
11 | Cc1cc2c(c(C)c1O)C(C)(C)CN2C(=O)C(C)(C)C | 25.1 µM (inactive) |  | > 100 µM (inactive) | > 100 µM (inactive) | 84.7 µM (inactive) | 86.7 µM (inactive) | 22.7 µM (inactive) | 54.1 µM (inactive) | 41.5 µM (inactive) | 57 µM (inactive) | 26.1 µM (inactive) | 86.9 µM (inactive) | > 100 µM (inactive) | > 100 µM (inactive) | 56.5 µM (inactive) | 66.7 µM (inactive) | 56 µM (inactive) | > 100 µM (inactive) | > 100 µM (inactive) | > 100 µM (inactive)
12 | COc1ccc(Nc2nn3c(=O)c4c(C)c(C)sc4nc3s2)cc1 | 41.1 µM (inactive) | 35.6 µM (inactive) | 18.1 µM (inactive) | 71 µM (inactive) | 26.7 µM (inactive) | > 100 µM (inactive) | 19.7 µM (inactive) | 24.4 µM (inactive) | > 100 µM (inactive) | 42.3 µM (inactive) | 67.8 µM (inactive) | 78.7 µM (inactive) | 37.9 µM (inactive) | 61.1 µM (inactive) | 25.7 µM (inactive) |  | 34.7 µM (inactive) | 26.8 µM (inactive) | 79.1 µM (inactive) | 28.6 µM (inactive)
13 | O=[N+]([O-])/C(Cl)=C/C(=C1/Nc2ccccc2O1)[N+](=O)[O-] | 22.2 µM (inactive) |  | 19.2 µM (inactive) | 23.4 µM (inactive) | 13.9 µM (inactive) | 21.2 µM (inactive) | 18.1 µM (inactive) | 29 µM (inactive) | 32.7 µM (inactive) | 32.8 µM (inactive) | 27.4 µM (inactive) | 30.1 µM (inactive) | 12.8 µM (inactive) | 19.5 µM (inactive) | 32.6 µM (inactive) | 19 µM (inactive) | 15.9 µM (inactive) | 44.1 µM (inactive) | 27.2 µM (inactive) | 31.5 µM (inactive)
14 | CCCCCC#CCOC(=O)C(=[N+]=[N-])P(=O)(c1ccccc1)c1ccccc1 | > 10 µM (inactive) |  | > 10 µM (inactive) | > 10 µM (inactive) | 8.26 µM (inactive) |  | > 10 µM (inactive) |  | > 10 µM (inactive) | > 10 µM (inactive) | > 10 µM (inactive) | > 10 µM (inactive) | > 10 µM (inactive) | > 10 µM (inactive) | > 10 µM (inactive) | > 10 µM (inactive) | > 10 µM (inactive) | > 10 µM (inactive) | > 10 µM (inactive) | > 10 µM (inactive)
15 | Cc1cc(S(=O)(=O)O)ccc1/N=N/c1c(O)ccc2ccccc12 | > 100 µM (inactive) | > 100 µM (inactive) | > 100 µM (inactive) | > 100 µM (inactive) | > 100 µM (inactive) | > 100 µM (inactive) | > 100 µM (inactive) | > 100 µM (inactive) | > 100 µM (inactive) | 82.2 µM (inactive) | > 100 µM (inactive) | > 100 µM (inactive) | > 100 µM (inactive) | > 100 µM (inactive) | > 100 µM (inactive) |  | > 100 µM (inactive) | > 100 µM (inactive) | > 100 µM (inactive) | 
